From patent publication US11787780B2 (CORCEPT THERAPEUTICS INCORPORATED, priority 2020, dated 2023)

What was measured:
[1] = system: induction of TAT by dexamethasone in HepG2 cells; assay: Hep G2 TAT assay (inhibition of dexamethasone-induced TAT); format: cell-based, human; details: agonist induction of TAT, read-out: average EC50 value (half-maximal effect) of TAT production
[2] = system: induction of TAT by dexamethasone in HepG2 cells; assay: as above; format: cell-based, human; details: challenge of 100 nM dexamethasone, IC50 converted to Ki by Cheng and Prusoff equation
[3] = molecular target: glucocorticoid receptor (GR) recombinant ligand binding domain (LBD) (Homo sapiens (Human), UniProt P04150); assay: GR binding fluorescence polarisation (FP) assay; details: displacement of fluorescently tagged ligand
Method: Binding of test compounds to the glucocorticoid receptor (GR) is determined using a fluorescence polarisation (FP) assay utilising a recombinant ligand binding domain (LBD) of GR. The test compounds are assessed by their ability to displace a fluorescently tagged ligand and detection of the resulting decrease in fluorescence polarisation.

Sequence of glucocorticoid receptor (GR) recombinant ligand binding domain (LBD) (P04150 524-758): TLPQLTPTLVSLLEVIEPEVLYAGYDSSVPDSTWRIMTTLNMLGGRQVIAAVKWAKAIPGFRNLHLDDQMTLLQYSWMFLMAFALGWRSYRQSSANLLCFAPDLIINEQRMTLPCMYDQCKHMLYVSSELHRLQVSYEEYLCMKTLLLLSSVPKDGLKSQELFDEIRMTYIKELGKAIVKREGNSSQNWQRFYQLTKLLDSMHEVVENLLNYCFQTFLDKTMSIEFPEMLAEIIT

Compound: C[C@@H]1C[C@H]2[C@@H]3CCC4=CC(=O)C=C[C@]4(C)[C@@]3(F)[C@@H](O)C[C@]2(C)[C@@]1(O)C(=O)CO [Dexamethasone, dexamethasone]
- EC50 [1]: 20 nM

Compound: COc1nn(C)cc1-n1ncc2cc(C3(Cc4ccccc4)CCN(S(=O)(=O)c4cnn(C)n4)C3)c(C)cc21 (stereo not drawn) [Example 251, 5-(3-benzyl-1-((2-methyl-2H-1,2,3-triazol-4-yl)sulfonyl)pyrrolidin-3-yl)-1-(3-methoxy-1-methyl-1H-pyrazol-4-yl)-6-methyl-1H-indazole]
- Ki [2]: 180 nM
- IC50 [3]: 27 nM

Compound: CCCn1cc(S(=O)(=O)N(CCOC)[C@@H]2CCN(c3cc4cnn(-c5ccc(F)cc5)c4cc3C)C2)cn1 [Example 122]
- Ki [2]: 155 nM
- IC50 [3]: 14 nM

Compound: CCCn1cc(S(=O)(=O)NC2(C)CCN(c3cc4cnn(-c5ccc(F)cc5)c4cc3C)CC2)cn1 [Example 129]
- Ki [2]: 66 nM
- IC50 [3]: 5 nM

Compound: Cc1cc2c(cnn2-c2ccc(=O)n(C)c2)cc1C1(Cc2ccccc2)CCN(S(=O)(=O)c2cc(F)cc(F)c2)C1 (stereo not drawn) [Example 297, 5-(5-(3-benzyl-1-((3,5-difluorophenyl)sulfonyl)pyrrolidin-3-yl)-6-methyl-1H-indazol-1-yl)-1-methylpyridin-2(1H)-one]
- Ki [2]: 36 nM
- IC50 [3]: 10 nM
